Assay results published in patent publication US20100227853A1, “INHIBITORS OF CYCLIC AMP PHOSPHODIESTERASES” (Trustees of Boston College, priority 2008, published 2010).

Assays:
PDE4A1 = molecular target: T1, PDE4A1 (Mus musculus, UniProt O89084); experiment: 5FOA growth assay (high throughput screen, ED50) in fission yeast strain expressing PDE4A1; type: cell-based; conditions: high throughput 5FOA growth screen; greater than 8.53 = statistically-significant inhibitor
T1 construct: targets used in the assays are full-length proteins (as opposed to simply the catalytic domain); expressed in transfected cells; host or cells: Schizosaccharomyces pombe, PDE gene integrated in place of cgs2
T1 sequence (O89084 1-610 isoform O89084-2): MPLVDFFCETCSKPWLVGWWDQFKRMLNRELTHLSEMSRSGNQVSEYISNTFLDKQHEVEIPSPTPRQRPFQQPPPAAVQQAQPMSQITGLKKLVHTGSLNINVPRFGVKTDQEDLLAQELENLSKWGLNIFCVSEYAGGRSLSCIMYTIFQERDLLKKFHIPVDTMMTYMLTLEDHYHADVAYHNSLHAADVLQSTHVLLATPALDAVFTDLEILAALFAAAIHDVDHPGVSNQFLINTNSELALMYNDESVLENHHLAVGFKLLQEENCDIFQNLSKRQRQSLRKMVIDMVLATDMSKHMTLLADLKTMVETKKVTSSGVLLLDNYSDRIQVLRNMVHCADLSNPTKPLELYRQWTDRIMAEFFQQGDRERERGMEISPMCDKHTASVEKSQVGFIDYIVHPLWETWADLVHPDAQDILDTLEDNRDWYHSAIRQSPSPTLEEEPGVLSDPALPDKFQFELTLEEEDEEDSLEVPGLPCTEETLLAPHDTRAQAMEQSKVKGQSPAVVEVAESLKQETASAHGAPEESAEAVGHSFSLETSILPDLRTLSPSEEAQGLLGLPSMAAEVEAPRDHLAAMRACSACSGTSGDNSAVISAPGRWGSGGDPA
Description: (§1) High throughput drug screens were carried out at the Broad Institute's Chemical Biology Program screening facility (Broad Institute, Cambridge, Mass.). Depending upon the strain, cultures were pregrown to exponential phase in EMM complete medium containing from 0.5 to 2.5 mM cAMP to repress fbp1-ura4 transcription. […] Starting cell concentrations ranged from 0.5×10^5 to 4×10^5 cells/ml depending on the screening strain. […] Other positive control dishes contained 5 mM cAMP in the 5FOA medium. Cultures were grown for 48 hours at 30° C., sealed in an airtight container with moist paper towels to prevent evaporation. Optical densities (OD600) of cultures were measured using a microplate reader. Bioinformatic analysis of the results to determine composite Z scores was performed as previously described^30, 31.
(§2) To determine whether the 5FOA growth phenotype could be exploited for high throughput drug screening, strains expressing PDE2A, PDE4A, PDE4B, or PDE8A were pre-grown in EMM medium containing cAMP and then transferred to 5FOA medium in 384 well microtiter plates in the presence or absence of cAMP. OD600 measurements were taken after 48 hours incubation at 30° C.
(§3) Cells were pregrown in EMM medium [MP Biomedicals (Solon, Ohio), 3% glucose, filter-sterilized to avoid carmelization, which would introduce variability into the optical density of the medium] containing from 0 mM to 2.5 mM cAMP (or either 0.5 mM or 1.0 mM cGMP). This was to repress expression of the fbp1-ura4 reporter prior to exposure of cells to 5FOA medium. Cells were grown at 30° C. to exponential phase (approximately 10^7 cells/ml). […] Starting cell concentrations ranged from 0.5×10^5 to 4×10^5 cells/ml depending on the screening strain. […] Other positive control dishes contained 5 mM cAMP in the 5FOA medium for PDEs that lack appropriate control compounds. Cultures were grown for 48 hours at 30° C., sealed in an airtight container with moist paper towels to prevent evaporation. Optical densities (OD600) of cultures were measured using a microplate reader. Bioinformatic analysis of the results to determine composite Z scores was performed as previously described (1, 3).

PDE4B3 = molecular target: T2, PDE4B3 (Mus musculus, UniProt Q8VBU5); experiment: 5FOA growth assay in fission yeast strain expressing PDE4B3; type: cell-based, Murine; conditions: high throughput 5FOA growth screen
T2 construct: targets used in the assays are full-length proteins (as opposed to simply the catalytic domain); expressed in transfected cells; host or cells: Schizosaccharomyces pombe, PDE gene integrated in place of cgs2
T2 sequence (Q8VBU5 1-721): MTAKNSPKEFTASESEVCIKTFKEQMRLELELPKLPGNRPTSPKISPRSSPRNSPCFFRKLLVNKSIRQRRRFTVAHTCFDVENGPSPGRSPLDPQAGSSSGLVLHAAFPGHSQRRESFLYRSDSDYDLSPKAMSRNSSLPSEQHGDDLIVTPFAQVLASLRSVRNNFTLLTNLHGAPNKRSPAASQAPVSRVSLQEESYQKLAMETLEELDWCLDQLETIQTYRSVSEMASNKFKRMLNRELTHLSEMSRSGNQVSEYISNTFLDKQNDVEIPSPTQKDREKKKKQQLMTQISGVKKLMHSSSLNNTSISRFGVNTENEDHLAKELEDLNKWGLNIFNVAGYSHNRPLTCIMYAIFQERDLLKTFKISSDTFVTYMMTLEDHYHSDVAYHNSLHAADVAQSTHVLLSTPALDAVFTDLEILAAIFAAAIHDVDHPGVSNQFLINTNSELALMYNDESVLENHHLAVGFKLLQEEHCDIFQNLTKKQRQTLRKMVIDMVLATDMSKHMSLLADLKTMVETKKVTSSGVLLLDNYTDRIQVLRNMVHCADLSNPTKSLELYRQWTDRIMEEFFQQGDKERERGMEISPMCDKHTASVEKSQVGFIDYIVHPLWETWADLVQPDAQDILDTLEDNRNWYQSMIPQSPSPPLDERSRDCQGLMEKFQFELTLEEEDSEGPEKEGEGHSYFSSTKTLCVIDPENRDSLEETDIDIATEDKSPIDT
Description: as §1, §2, §3

PDE7A = PDE7A (Homo sapiens, UniProt Q13946); experiment: 5FOA growth assay in fission yeast strain expressing PDE7A; type: cell-based; set-up: targets used in the assays are full-length proteins (as opposed to simply the catalytic domain); expressed in transfected cells; host or cells: Schizosaccharomyces pombe, PDE gene integrated in place of cgs2; conditions: high throughput 5FOA growth screen
Sequence of PDE7A (Q13946 whole entry, the tested form may be a part): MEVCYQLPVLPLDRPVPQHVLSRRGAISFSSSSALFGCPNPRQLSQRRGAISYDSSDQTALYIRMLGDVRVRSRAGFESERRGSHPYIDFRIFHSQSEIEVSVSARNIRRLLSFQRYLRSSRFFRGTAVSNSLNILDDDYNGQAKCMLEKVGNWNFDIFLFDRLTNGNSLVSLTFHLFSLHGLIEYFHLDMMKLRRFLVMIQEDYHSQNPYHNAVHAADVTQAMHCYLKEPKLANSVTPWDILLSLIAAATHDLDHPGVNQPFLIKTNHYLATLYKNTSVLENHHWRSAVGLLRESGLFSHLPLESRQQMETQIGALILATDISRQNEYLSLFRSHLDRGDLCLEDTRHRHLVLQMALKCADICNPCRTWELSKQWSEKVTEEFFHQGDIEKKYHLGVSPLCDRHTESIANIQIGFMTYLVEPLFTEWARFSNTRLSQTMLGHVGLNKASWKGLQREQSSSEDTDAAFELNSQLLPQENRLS
Description: PDE inhibition allows growth in 5FOA medium as measured by optical density after 48 hours incubation at 30° C. Compound BC12 and six structural analogs were tested for growth stimulation.
Cells were pregrown in EMM medium [MP Biomedicals (Solon, Ohio), 3% glucose, filter-sterilized to avoid carmelization, which would introduce variability into the optical density of the medium] containing from 0 mM to 2.5 mM cAMP (or either 0.5 mM or 1.0 mM cGMP). This was to repress expression of the fbp1-ura4 reporter prior to exposure of cells to 5FOA medium. Cells were grown at 30° C. to exponential phase (approximately 10^7 cells/ml). Cells were collected by centrifugation and resuspended in 5FOA medium, and 25 μl were transferred to 384-well microtiter dishes (untreated, with flat clear bottoms) that had been pre-filled with 25 μl 5FOA medium and pre-pinned with 100 nl of compounds (stock solutions were generally 10 mM). Starting cell concentrations ranged from 0.5×10^5 to 4×10^5 cells/ml depending on the screening strain. […] Other positive control dishes contained 5 mM cAMP in the 5FOA medium for PDEs that lack appropriate control compounds. Cultures were grown for 48 hours at 30° C., sealed in an airtight container with moist paper towels to prevent evaporation. Optical densities (OD600) of cultures were measured using a microplate reader. Bioinformatic analysis of the results to determine composite Z scores was performed as previously described (1, 3).

Compound | Composite Z score, PDE4A1 (PDE4A1) | Composite Z score, PDE4B3 (PDE4B3) | Composite Z score, PDE7A (PDE7A)
O=C(Nc1ncnc2sc3c(c12)CCCCC3)c1ccco1 [Compound 2084G06] | 6.4203 | 0.884 | −1.808
CC(C)CNc1ncnc2sc3c(c12)CCCC3 [Compound 2077P12] | 1.6797 | 9.3964 | 17.695
c1ccc(CN2CCN(c3ncnc4sc5c(c34)CCCCC5)CC2)cc1 [Compound 2074A07] | −0.348 | 0.8366 | 0.7527
Cc1sc2ncnc(NCc3cccnc3)c2c1C [Compound 2081F17] | 0.1374 | 1.6993 | 0.439
Cc1sc2ncnc(N(C)C)c2c1C [Compound 2085O15] | 1.0991 | −1.519 | −0.627
O=C(Nc1ncnc2sc3c(c12)CCC3)c1cccs1 [Compound 2084I06] | 7.8022 | 0.9421 | 12.419
Cc1sc2ncnc(NCC(=O)O)c2c1C [Compound 2085F18] | 0.3168 | 0.8136 | −1.774
c1ccc(CNc2ncnc3sc4c(c23)CCCC4)cc1 [Compound 2077J03] | 1.1575 | 1.9013 | 1.1908
O=C(Nc1ncnc2sc3c(c12)CCC3)c1ccccc1 [Compound 1380I07] | 36.663 | −0.935 | 
CC1CCc2c(sc3nc(SCC(N)=O)nc(NCc4ccccc4)c23)C1 (stereo not drawn) [Compound 1439G17] | 6.7542 | 47.874 | 
CCOC(=O)CSc1nc(NC)c2c3c(sc2n1)CCCC3 [Compound 1439B09] | 0.5702 | 1.2391 | 
CCC(CO)Nc1nc(C)nc2sc3c(c12)CCC3 (stereo not drawn) [Compound 1422J17] | 0.1866 | −0.936 | 
OCCN(CCO)c1ncnc2sc3c(c12)CCCC3 [1415 E01] | 2.2076 | 0.8257 | 
CC1CCc2c(sc3ncnc(NCCN4CCOCC4)c23)C1 (stereo not drawn) [Compound 1425N16] | 0.4867 | −1.074 | 
CCN(CC)CCCNc1ncnc2sc3c(c12)CC(C)CC3 (stereo not drawn) [Compound 2083L15] | 1.9931 | −0.877 | −1.18
Cc1nc(N2CCOCC2)c2c(C)c(C(=O)Nc3cccc(Cl)c3C)sc2n1 [Compound 1424K08] | 3.4896 | 21.717 | 
Cc1nc(N2CCC(C)CC2)c2c(C)c(C(=O)N3CCOCC3)sc2n1 [Compound 1424A12] | 2.2036 | −2.898 | 
O=C(c1ccco1)N1CCN(c2ncnc3sc4c(c23)CCCC4)CC1 [Compound 2083J20] | 18.511 | 5.6256 | 0.8496
CC(C)C(Nc1ncnc2sc3c(c12)CCC3)C(=O)O (stereo not drawn) [Compound 1381A19] | 1.3339 | 0.2365 | 

Now from value to molecule:

Composite Z score, PDE4A1 (PDE4A1) | Composite Z score, PDE4B3 (PDE4B3) | Composite Z score, PDE7A (PDE7A) | Compound
29.047 | 0.593 | 18.891 | c1nc(NC2CCCC2)c2c3c(sc2n1)CCC3 [2084 E21]
0.1942 | 0.6718 | 0.0079 | Cc1sc2ncnc(N3CCN(CCO)CC3)c2c1C [Compound 2084A21]
1.7784 | 1.1976 |  | COc1ccccc1C(=O)Nc1ncnc2sc3c(c12)CCCC3 [Compound 1415M01]
−0.126 | 3.0462 |  | CCOC(=O)c1sc2nc(CC(=O)OC)nc(NCC(=O)OC)c2c1C [Compound 1379F18]
9.1375 | −0.382 |  | COc1ccc(C(=O)Nc2ncnc3sc4c(c23)CCCC4)cc1OC [Compound 1414F18]
0.4682 | 0.0693 |  | CCC(CO)Nc1nc(C)nc2sc3c(c12)CCCC3 (stereo not drawn) [Compound 1426O11]
0.327 | 0.6059 |  | Cc1nc(N2CCCN(C)CC2)c2c3c(sc2n1)CCC3 [Compound 1415C05]
11.67 | −1.188 | −1.925 | Cc1sc2ncnc(N3CCN(c4cccc(C(F)(F)F)c4)CC3)c2c1C [Compound 2074G03]
10.795 | 0.7173 |  | COC(=O)Cc1nc(N2CCC(C)CC2)c2c3c(sc2n1)CCCC3 [Compound 1392J18]
